“Also recorded” adds a separate entry of the source.
Tests used:
primary astrocytes = assay: Activation of cultured primary astrocytes, mRNA expression; assay type: cell-based, mouse; conditions: primary mouse astrocytes activated with LPS/IFNγ; Miglustat
Protocol: FIGS. 3a-m. LacCer produced by B4GALT6 acts in an autocrine manner to boost astrocyte activation. Cultured astrocytes were pre-treated for 1 h with PDMP (25 μM), LacCer (10 μM), both (LacCer+PDMP), or vehicle (vehicle), followed by activation with lipopolysaccharide (100 ng/ml) and Interferon-γ (100 Units/ml) (LPS/IFNγ) or left un-treated (control). (a) Heatmap depicting mRNA expression, as detected by Nanostring nCounter analysis, in astrocytes stimulated with LPS/IFNγ. Representative data of three independent experiments. (b) Histogram presentation of the normalized gene expression presented in (a), statistical analysis by one-way ANOVA followed by Tukey post-hoc analysis. (c-i) The expression of B4galt5 (shB4galt5), B4galt6 (shB4galt6) or non-targeting shRNA (ShControl) in C8-D30 astrocytes was knocked-down using verified shRNA (n≥4). (c) qRT analysis of B4galt5 and B4galt6 mRNA expression. (d-f) astrocytes were activated as in (a) and mRNA expression for (d) H2-Aa, (e) Ccl5 and (f) Cxcl10 was determined; expression is presented relative to house keeping gene (Gapdh) (n≥4). (g) Schematic map of the astrocyte-specific shRNA lentiviral vector. […] NOD mice were injected i.c.v. with 1×10^7 IU of shControl, shB4galt5 or shB4galt6 lentivirus, at day 35 after EAE induction (progressive phase). n=10 mice per group (h, i) 10 days after i.c.v. injection experiment was terminated and (h) b4galt5 and b4galt6 expression levels were determined by qPCR in astrocytes isolated from naïve or EAE NOD mice; expression normalized to gapdh and presented relative to that of cells from naïve mice. Representative data of two independent experiments, Statistical analysis by one-way ANOVA, followed by Tukey post-hoc analysis. (i) LacCer levels were quantified of in the CNS of naïve or EAE NOD mice treated as shown in (j). Statistical analysis by one-way ANOVA, followed by Tukey post-hoc analysis. (j) EAE clinical scores. Representative data of two independent experiments. Statistical analysis as in (FIG. 1a). (k) Cultured primary astrocytes were pre-treated for 1 h with PDMP (25 μM), LacCer (10 μM), both (LacCer+PDMP), or vehicle control (vehicle), followed by activation with LPS/IFNγ for 45 min, or left un-treated (control, Con). IRF-1 and Lamin B expression in the nuclear fraction analyzed by western blot and the degree of IRF-1 translocation to the nucleus was assessed by the ratio between the expression of IRF-1 and Lamin-B in the nuclear fractions following densitometric quantification on four independent experiments (right panel). Statistical analysis by one-way ANOVA, followed by Tukey post-hoc analysis. (l) ChIP analysis of the interaction of NF-κB, and IRF-1 with the) nos2 promoter in primary cultured astrocytes. Experimental design and data analysis as in (FIG. 4c). Data from two independent experiments (m) qPCR analysis of the expression of nos2, csf2, ccl2, ccl5, il6, and tlr2 in astrocyte cultures established from WT or IRF-1 deficient (IRF-1 KO) mice, pre-treated with LacCer or vehicle, and activated with LPS/IFNγ. […]
FIGS. 14a-g. […] (a) Cultured astrocytes were pre-treated for 1 h with PDMP (25 μM), LacCer (10 μM), both (LacCer+PDMP), or vehicle control (vehicle), followed by activation with LPS/IFNγ for 6 h, or left un-treated (control, Con). mRNA expression was analyzed 6 h following activation. qPCR analysis of the expression of cc/5, csf2, nos2, il6, H2-Aa, and tlr2 presented relative to gapdh. […]

T cells = assay: T-cell response in EAE mice (recall proliferation, cytokines, polarization); assay type: in vivo, mouse; conditions: for T-cell response: NOD EAE, daily Miglustat
Protocol: FIGS. 9a-d. Depletion of reactive astrocytes reduces the recruitment of peripheral leukocytes to the CNS. (a-d). EAE was induced in WT or GFAP^TK F1 hybrid mice and Ganciclovir (GCV) or vehicle control (PBS) was administered as in FIG. 1b. Data are representative of three independent experiments with n≥7 mice/group (means and s.e.m.). (a) Effect of GCV administration on reactive astrocytes detected by GFAP staining (b) Recruitment of monocytes (red gate) and lymphocytes (green gate) to the CNS assessed by FACS. Data are representative of three independent experiments. Statistical analysis by Student's t-test. (c, d) Effect of the depletion of reactive astrocytes during the chronic phase of EAE on the recall proliferative response to MOG(35-55) or anti-CD3 (c) and the expression of IFN-γ, IL-17A, Foxp3 and IL-10 in splenic CD4+ T cells (d). *P<0.05, and (n.s) not significant.
FIGS. 12a-i. […] (a) Naïve C57BL/6 (Left panel) and NOD (right panel) mice were treated with LacCer (10 μg per mouse) or vehicle as indicated by red arrows, and EAE clinical scores was recorded. At experimental end point (day 25), astrocytes were isolated and their transcriptional profile was determined by nCounter Nanostring analysis. (b-e) EAE was induced in C57BL/6 (b, c) or NOD mice (d, e) and LacCer or vehicle were administrated as in FIGS. 1g and 1h, respectively. Splenic T-cell recall response to MOG(35-55) (20 μg/ml); proliferation (b, d) and secretion of IL-17A, IFN-γ and IL-10 cytokines (c, e). Data are representative of two independent experiments with ≥8 mice/group (mean and s.e.m.). (f-i) EAE NOD mice were treated with PDMP or vehicle during the chronic phase as in FIG. 1K. Data are representative of three independent experiments with n≥8 mice/group (mean and s.e.m.). (f) qPCR analysis of the expression of tbx21, ifng, rorc, il17A, csf2, il10, foxp3, and tgfb1 mRNA of CD3^+CD4^+ T-cells isolated from the CNS; expression is presented relative to gapdh. (g, h) Recall response to MOG(35-55) (20 μg/ml); proliferation (g) and secretion of IL-17A, IFN-γ and IL-10 cytokines (h). (i) Expression of IFN-γ, IL-17A, Foxp3 and IL-10 by splenic CD3^+CD4^+ T cells (mean and s.e.m.).
Splenocytes and lymph node cells were cultured in X-VIVO medium and were plated for 72 h at a density of 5×10^5 cells per well in the presence of MOG35-55 peptide. During the final 16 h, cells were pulsed with […] [3H]thymidine (PerkinElmer), followed by collection on glass fiber filters and analysis of incorporated [3H]thymidine in a-counter (1450 MicroBeta TriLux; PerkinElmer). Supernatants were collect after 48 h of culture for cytokine measurement by enzyme-linked immunosorbent assay^14. For intracellular cytokine staining, cells were stimulated for 6 h with PMA (phorbol 12-myristate 13-acetate; 50 ng/ml; Sigma), ionomycin (1 μg/ml; Sigma) and monensin (GolgiStop; […]; BD Biosciences). After staining of surface markers, cells were fixed and made permeable according to the manufacturer's instructions BD Cytofix/Cytoperm™ Kit (BD Biosciences), or Foxp3 Fixation/Permeabilization (Ebiosceince).

inflammatory monocytes = assay: Recruitment of inflammatory monocytes to the CNS of EAE NOD mice (flow cytometry); assay type: in vivo, mouse; conditions: daily Miglustat from onset of progressive phase
EAE NOD mice = assay: EAE in NOD mice, progressive phase (clinical score, histopathology, body weight); assay type: in vivo; conditions: NOD EAE; for body weight: daily Miglustat
reactive astrocytes = assay: EAE in F1 NOD C57BL/6 GFAP-HSV-TK hybrid mice, depletion of reactive astrocytes; assay type: in vivo, mouse

Compound	astrocyte activation (primary astrocytes)	T-cell response (T cells)	T-cell response (T cells; listed as miglustat)	recruitment of inflammatory monocytes to the CNS (inflammatory monocytes)	body weight (EAE NOD mice)	body weight (EAE NOD mice; listed as miglustat)	clinical course of EAE disease progression (EAE NOD mice; daily from onset of progressive phase, oral 1800 or 600 mg/kg, or nasal 900 mg/kg twice a day)	peripheral T-cell response (T cells; GFAP-TK F1 mice, GCV during progressive phase)	EAE scores, astrocyte depletion during the progressive phase (reactive astrocytes; 25 mg/kg daily s.c. days 30-50)	EAE scores, astrocyte depletion during the acute phase (reactive astrocytes; 25 mg/kg daily s.c. from 7 days before induction until day 15)	leukocyte infiltration in the CNS (reactive astrocytes; treatment during progressive phase, FACS)
CCCCN1C[C@H](O)[C@@H](O)[C@H](O)[C@H]1CO [Miglustat, N-butyl-deoxynojirimycin]	inhibits astrocyte activation	does not affect T-cell polarization	did not affect	reduced the recruitment; also recorded: reduces monocytes recruitment	does not affect body weight	did not affect	suppressed the clinical course of disease progression; also recorded: halts chronic EAE progression				
Nc1nc(O)c2ncn(COC(CO)CO)c2n1 [GCV, Ganciclovir]								did not affect	significant amelioration of EAE	significant worsening of EAE	decreased leukocyte infiltration

From patent US9927437B2, “Treating neurodegenerative disease” (THE BRIGHAM AND WOMEN'S HOSPITAL, INC., priority 2013, dated 2018)
